In US20090030058A1, “TOSYLATE SALT OF 6- (4-BR0M0-2-CHL0R0PHENYLAMIN0) -7-FLUORO-N- (2-HYDROXYETHOXY) -3-METHYL-3H-BENZIMI DAZOLE- 5 - CARBOXAMIDE , MEK INHIBITOR USEFUL IN THE TREATMENT OF CANCER” (priority 2005, published 2009):
Entries after “also recorded” stand apart in the source; their conditions may differ. Where a name gives a salt, the structure may show the parent alone.

Tests used:
[1] = Solubility in various media (amount dissolved after stirring with excess solid); assay type: physicochemical
Procedure: Due to the observation of the tosylate salt remaining as the salt form in solution, further investigations were performed to probe the solubility of the salts in various media. The amounts dissolved (mg/mL) in the various media after stirring either the Compound 1 free base or the Compound 1 tosylate salt with excess solid for 10 minutes and 60 minutes are shown in Table 4 (SIF=Simulated intestinal fluid; FaSIF=Fasted Simulated Intestinal Fluid).

[2] = Intrinsic and powder dissolution rate (pH 6.5); assay type: physicochemical
Procedure: In order to investigate the effects of salts on the release rate, an intrinsic dissolution (pH 6.5) was performed.

[3] = Percent dissolution after 1 hour, tablet and powder form; assay type: physicochemical
Procedure: Dissolution of the free base of Compound 1 as well as the tosylate salt of Compound 1 was investigated at the 1 hour time point in both tablet form and powder form. The dissolution rate of the tosylate salt was generally much higher than that of the free base.

[4] = Particle size reduction (milling, micronisation), PXRD; assay type: physicochemical; conditions: pestle and mortar 10 minutes or spiral jet mill, listed as tosylate salt, p-toluenesulfonate
Procedure: In order to investigate the potential for the materials to become amorphous during particle size reduction procedures, batches of the material were milled either by grinding the material in a pestle and mortar for 10 minutes or by micronising using conventional micronising equipment, in this case, a 2″ Spiral jet mill manufactured by Gravesend engineering. The products were subjected to PXRD as described in Example 4 above.

[5] = Solid state storage stability (disproportionation); assay type: physicochemical; conditions: 3 months storage at 40° C. and 5% relative humidity
[6] = Dog study, plasma levels of Compound 1 after oral tablets; assay type: in vivo, Alderley Park Beagle Dogs; conditions: fasted dogs, 50 mg or 150 mg fbe
Procedure: A dog study was performed to measure plasma levels of Compound 1 in fasted dogs following oral administration of 50 mg free base equivalent (fbe) doses in tablets of the free base and the tosylate salt (form 2 of the 1:1 stoichiometric salt), and 150 mg fbe as 3×50 mg tablets of the tosylate salt.
Tablets of Compound 1 were manufactured using a standard direct compression process. Three batches were made containing Compound 1 free base or Compound 1 tosylate as the active pharmaceutical ingredient (API). The generic formulation contained API (12.5% w/w), fast flo lactose (72.0% w/w), Avicel PH102 (10.0% w/w), AcDiSol (4.0% w/w), sodium lauryl sulfate (0.5% w/w) and magnesium stearate (1.0% w/w). The required quantity of each formulation component, excluding magnesium stearate, was weighed and charged to a mixing vessel. The powders were then mixed for 30 minutes using a tumble blender. The powder mix was then sieved through a 425 μm sieve before being mixed for a further 15 minutes using the tumble blender. […] The required quantity of powder mix for each tablet was weighed individually and charged to the die before being compressed manually using a hand-operated press. […]
Dogs were fed about 400 g of Harlan Teklad 2021 each day and allowed water ad libitum. […] Plasma (50 mcL) was analysed for Compound 1 concentration.

[7] = Disproportionation study, slurry in pH 6.5 buffer, XRPD; assay type: physicochemical; conditions: for disproportionation of the salt to the free base in buffer: suspension/slurry in pH 6.5 buffer, XRPD, p-toluenesulfonate
Procedure: The characteristics of the salts in liquids were investigated by slurrying the material in a range of solvents including a buffer of pH 6.5 to simulate physiological conditions.
Compound 1 tosylate salt was slurried in pH 6.5 buffer at room temperature at a concentration of 100 mg in 2 mL. Samples were taken at 15 minute intervals up to 120 minutes.
In order to prepare the pH 6.5 slurry of Compound 1 tosylate salt, a buffer was first prepared by producing a first solution (Solution A) by adding 90.8 mg of potassium dihydrogen phosphate to a conical 100 mL flask. Deionised water was added to mark ensuring all solid had dissolved. A second solution (Solution B) was prepared by adding 118.8 mg of disodium hydrogen phosphate to a conical 100 mL flask and deionised water was added to mark ensuring all solid had dissolved. Then 64 mL of solution A was mixed with 32 mL of solution B to form a pH 6.5 buffer
The slurry was prepared by adding 100 mg of Compound 1 tosylate to a 10 mL vial and to this was added 2 mL of the pH 6.5 buffer (prepared above), a magnetic stir bar was added and vial placed on a magnetic stirrer. Small aliquots of the suspension were removed after 15 minutes, 30 minutes, 45 minutes, 60 minutes and 120 minutes and each sample was placed on a metal plate on the D8 Diffractometer and an XRPD pattern determined immediately. The results after 0, 15 and 60 minutes are shown in FIGS. 7, 8 and 9, respectively.

[8] = system: constitutively active MEK1 (2-393); test: MEK1 kinase assay (33P incorporation onto ERK2); assay type: biochemical
Procedure: N-terminal 6 His-tagged, constitutively active MEK1 (2-393) is expressed in E. coli and protein is purified by conventional methods (Ahn et al., Science 1994, 265, 966-970). The activity of MEK1 is assessed by measuring the incorporation of γ-^33P-phosphate from γ-^33P-ATP onto N-terminal His tagged ERK2, which is expressed in E. coli and is purified by conventional methods, in the presence of MEK1. The assay is carried out in 96-well polypropylene plate. The incubation mixture (100 μL) comprises of 25 mM Hepes, pH 7.4, 10 mM MgCl2, 5 mM β-glycerolphosphate, 100 μM sodium orthovanadate, 5 mM DTT, 5 nM MEK1, and 1 μM ERK2. Inhibitors are suspended in DMSO, and all reactions, including controls are performed at a final concentration of 1% DMSO. Reactions are initiated by the addition of 10 μM ATP (with 0.5 μCi γ-^33P-ATP/well) and incubated at ambient temperature for 45 minutes. Equal volume of 25% TCA is added to stop the reaction and precipitate the proteins. Precipitated proteins are trapped onto glass fiber B filterplates, and excess labeled ATP washed off using a Tomtec MACH III harvestor. Plates are allowed to air-dry prior to adding 30 μL/well of Packard Microscint 20, and plates are counted using a Packard TopCount.

[9] = Relative stability of polymorphs; assay type: physicochemical; conditions: 1:1 anhydrous salt

Cn1cnc2c(F)c(Nc3ccc(Br)cc3Cl)c(C(=O)NOCCO)cc21 [Compound 1 tosylate, 6-(4-bromo-2-chloro-phenylamino)-7-fluoro-3-methyl-3H-benzoimidazole-5-carboxylic acid (2-hydroxy-ethoxy)-amide p-toluenesulfonate]
amount dissolved ([1]; FaSSIF, 10 min, p-toluenesulfonate): 0.19 mg/mL | amount dissolved ([1]; FaSSIF, 60 min, p-toluenesulfonate): 0.04 mg/mL | amount dissolved ([1]; H2O, 10 min, p-toluenesulfonate): 0.058 mg/mL | amount dissolved ([1]; SIF pH 6.5, 10 min, p-toluenesulfonate): 0.041 mg/mL | amount dissolved ([1]; SIF pH 6.5, 60 min, p-toluenesulfonate): 0.020 mg/mL | amount dissolved ([1]; Sorenson's buffer, 10 min, p-toluenesulfonate): 0.019 mg/mL | amount dissolved ([1]; Sorenson's buffer, 60 min, p-toluenesulfonate): 0.007 mg/mL | amount dissolved ([1]; pH 1.2, 10 min, p-toluenesulfonate): 0.41 mg/mL | amount dissolved ([1]; pH 1.2, 60 min, p-toluenesulfonate): 0.19 mg/mL | intrinsic dissolution rate relative to the free base [2]: comparable to that of the free base | powder dissolution rate relative to the free base [2]: 60 times | percent dissolution after 1 hour ([3]; FaSSIF, 50 mg (fbe) tablets, p-toluenesulfonate): 23.05% | percent dissolution after 1 hour ([3]; FaSSIF, powder, p-toluenesulfonate): 31.48% | percent dissolution after 1 hour ([3]; SIF pH 6.5, 50 mg (fbe) tablets, p-toluenesulfonate): 6.66% | percent dissolution after 1 hour ([3]; SIF pH 6.5, powder, p-toluenesulfonate): 5.16% | resistance to becoming amorphous on milling and micronisation [4]: highly resistant to becoming amorphous; also recorded: unique resistance to becoming amorphous | disproportionation in the solid state [5]: no disproportionation | exposure (plasma Compound 1) versus free base [6]: substantial increase in exposure | time the salt remains present in the slurry ([7]; pH 6.5 buffer, room temperature, 100 mg in 2 mL): up to 75 minutes | disproportionation of the salt to the free base in buffer ([7]; listed as Compound 1 tosylate salt): a small amount of free base is produced after 15 minutes | disproportionation of the salt to the free base in buffer [7]: little disproportionation

Cn1cnc2c(F)c(Nc3ccc(Br)cc3Cl)c(C(=O)NOCCO)cc21 [Compound 1, 6-(4-bromo-2-chloro-phenylamino)-7-fluoro-3-methyl-3H-benzoimidazole-5-carboxylic acid (2-hydroxy-ethoxy)-amide]
amount dissolved ([1]; FaSSIF, 10 min, listed as Compound 1 free base): 0.01 mg/mL | amount dissolved ([1]; FaSSIF, 60 min, listed as Compound 1 free base): 0.01 mg/mL | amount dissolved ([1]; H2O, 10 min, listed as Compound 1 free base): 0.004 mg/mL | amount dissolved ([1]; SIF pH 6.5, 10 min, listed as Compound 1 free base): 0.004 mg/mL | amount dissolved ([1]; SIF pH 6.5, 60 min, listed as Compound 1 free base): 0.004 mg/mL | amount dissolved ([1]; Sorenson's buffer, 10 min, listed as Compound 1 free base): 0.004 mg/mL | amount dissolved ([1]; Sorenson's buffer, 60 min, listed as Compound 1 free base): 0.004 mg/mL | amount dissolved ([1]; pH 1.2, 10 min, listed as Compound 1 free base): 0.14 mg/mL | amount dissolved ([1]; pH 1.2, 60 min, listed as Compound 1 free base): 0.13 mg/mL | percent dissolution after 1 hour ([3]; FaSSIF, 50 mg (fbe) tablets, listed as Compound 1 Free base): 4.54% | percent dissolution after 1 hour ([3]; FaSSIF, powder, listed as Compound 1 Free base): 4.49% | percent dissolution after 1 hour ([3]; SIF pH 6.5, 50 mg (fbe) tablets, listed as Compound 1 Free base): 2.61% | percent dissolution after 1 hour ([3]; SIF pH 6.5, powder, listed as Compound 1 Free base): 2.36% | activity in MEK1 assay [8]: activity

Cn1cnc2c(F)c(Nc3ccc(Br)cc3Cl)c(C(=O)NOCCO)cc21 [Form 2, 6-(4-bromo-2-chloro-phenylamino)-7-fluoro-3-methyl-3H-benzoimidazole-5-carboxylic acid (2-hydroxy-ethoxy)-amide p-toluenesulfonate]
stability relative to the other polymorph [9]: more stable than the salt in the form of the polymorph Form 1 | disproportionation of the salt to the free base in buffer [7]: some kinetic resistance to disproportionate
